{
  "source": "patent US11673891B2",
  "about": "“Imidazopyrimidine compounds and uses thereof” (Dana-Farber Cancer Institute, Inc., priority 2017, dated 2023)",
  "key": {"[1]": {"test_system": "Splenocytes isolated from 6-8 weeks old C57BL/6 mice", "assay": "Mouse splenocyte in vitro stimulation, murine IL-6 by ELISA", "format": "cell-based", "settings": "C57BL/6 splenocytes, 33 μM, 18 hours", "experimental": "Splenocytes isolated from 6-8 weeks old C57BL/6 mice and human adult PBMCs were stimulated for 18 hours with compound 037 and its analogs at 33 μM. Production of murine IL-6 and human TNF was assessed in cell-free supernatants by ELISA. Results are presented as scatter plot in which each dot represents median production of human TNF (N=3-5) or murine IL-6 (N=6) for each compound.\nSpleens were harvested from 6-8 weeks old C57BL/6 mice. For splenocyte isolation, spleens were mashed through a […] strainer, washed with PBS, and erythrocytes were lysed with 2 min of incubation in ammonium chloride-based lysis buffer (BD Biosciences). Cells were then counted and plated 2×10^6 per well (round bottom 96-well plate) in 200 μl of complete culture medium (RPMI 1640 plus 10% heat-inactivated fetal bovine serum [FBS, GE Healthcare HyClone], 50 μM 2-mercaptoethanol, 2 mM 1-glutamine, 100 U/ml penicillin/streptomycin [Gibco ThermoFisher Scientific]) with 0.66 μl of DMSO-dissolved compounds (10 mM) in order to achieve a final compound concentration of 33 μM. After 18 hours of incubation (37° C., 5% CO2), plates were spun down (500×g, room temperature, 5 minutes) and supernatants were harvested for further analysis."}, "human adult PBMCs": {"test_system": "human adult PBMCs", "assay": "TNF production by ELISA after stimulation of human adult PBMCs", "format": "cell-based", "settings": "33 μM, 18 hours", "experimental": "Table 1. Activity of Exemplary Imidazopyrimidine Compounds on Stimulating TNF Production in PBMCs as Compared to Compound R848 Table 1 provides the activity of exemplary compounds on stimulating TNF production in PBMCs as compared to the benchmark compound R848. Specifically, TNF production was measured by ELISA after stimulation of adult PBMCs with compound 037 analog family or the compound R848 at 33 μM for 18 hours. Analogs are ranked top to bottom by median percentage TNF production (TNF %) as compared to R848 (N=3-5). The compounds have been classified in the following categories according to TNF %: high activity—class A: TNF %>15%; medium activity—class B: 1%<TNF %≤15%; low activity—class C: TNF %≤1%.\nELISAs and Multiplex-Analyte Assays. Supernatants derived from human PBMCs and DC stimulations were assayed by ELISA for TNF (ThermoFisher Scientific; Waltham, Mass., USA). Cytokine and chemokine expression profiles (e.g., IFNγ, IL-9, IL-10, IL-12 (p70), IL-13, IL-1β, IL-23, IL-27, IL-28A, IL-33, IL-6, MIP-3α/CCL20, and TNF) in cell culture supernatants were measured using a customized Milliplex® Human Th17 Magnetic Bead Panel according to the manufacturer's instructions (Millipore, Chicago, Ill., USA). Assays were read and analyzed on the Luminex® 100/200™ System and xPOTENT® software (Luminex, Austin, Tex.). A minimum threshold was set at the minimum detectable concentration for each individual assay, defined as three standard deviations above the mean background.\nPBMCs were isolated from blood using a Ficoll density gradient. PBMCs either used fresh or were stored at 5×10^7 cells per vial in 1 mL RPMI containing 20% autologous plasma and 10% DMSO at −80° C. until use. Stimulation plates were prepared by transferring 0.66 μl of DMSO-dissolved compounds (10 mM) to each well of a round bottom 96-well plate. PBMCs isolated from human adult donors were resuspended at a concentration of 10^5 cells/200 μl of RPMI supplemented with 10% of platelet-poor plasma. 200 μl of the cell suspension were transferred to each well resulting in a final compound concentration of […]. After about 18 hours of incubation (37° C., 5% CO2), plates were spun down (500×g, room temperature, 5 minutes) and supernatants were harvested for further analysis."}},
  "note": "Entries after “also recorded” stand apart in the source; their conditions may differ.",
  "data": [
    {"smiles": "Cc1cnc2nc(-c3ccc(C)c(NC(=O)c4ccccc4C(F)(F)F)c3)cn2c1", "note": "[FRF-02-144-3]", "values": [
      {"measurement": "Production of murine IL-6 by splenocytes (in words)", "setting": "[1]", "value": "activates both human PBMCs and mouse splenocytes; also recorded: active on both human and murine cells"},
      {"measurement": "TNF (Median)", "setting": "human adult PBMCs; adult PBMCs, ELISA, median, N=3-5, unit not given (FIG. 6B/7B legends: TNF concentration in ng/ml)", "value": 5.397},
      {"measurement": "Activity class", "setting": "human adult PBMCs; class according to TNF % as compared to R848, adult PBMCs", "value": "A (high activity—class A: TNF %>15%)"},
      {"measurement": "Production of human TNF by PBMCs (in words)", "setting": "human adult PBMCs; human adult PBMCs, ELISA", "value": "activates both human PBMCs and mouse splenocytes; also recorded: active on both human and murine cells"},
      {"measurement": "TNF % (Median)", "setting": "human adult PBMCs; median percentage TNF production as compared to R848, adult PBMCs, N=3-5", "value": 99.81, "unit": "%"}
    ]}
  ]
}
